Data published in PMC9471048, “The signaling and selectivity of α‐adrenoceptor agonists for the human α2A, α2B and α2C‐adrenoceptors and comparison with human α1 and β‐adrenoceptors” (Pharmacology Research & Perspectives, 2022).
Like-named read-outs stand apart in the source and are kept apart here.

How the values were obtained:
[1] = biological target: T1, human α2A‐adrenoceptor (Homo sapiens, UniProt P08913)
T1 sequence (P08913 1-465): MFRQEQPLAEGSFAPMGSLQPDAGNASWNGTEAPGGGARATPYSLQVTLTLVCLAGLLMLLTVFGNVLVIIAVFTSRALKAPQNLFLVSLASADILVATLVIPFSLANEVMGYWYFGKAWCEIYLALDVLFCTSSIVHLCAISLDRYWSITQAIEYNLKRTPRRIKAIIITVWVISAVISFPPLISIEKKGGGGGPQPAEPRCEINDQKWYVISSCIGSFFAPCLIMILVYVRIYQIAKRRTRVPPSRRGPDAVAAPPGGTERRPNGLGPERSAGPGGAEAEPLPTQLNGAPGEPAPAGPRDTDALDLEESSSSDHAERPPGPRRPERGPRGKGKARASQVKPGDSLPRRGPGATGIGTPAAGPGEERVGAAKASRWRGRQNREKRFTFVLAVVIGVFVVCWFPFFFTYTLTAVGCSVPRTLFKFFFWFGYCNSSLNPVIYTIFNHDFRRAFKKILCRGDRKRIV

[2] = biological target: T2, human α2C‐adrenoceptor (Homo sapiens, UniProt P18825)
T2 sequence (P18825 1-462): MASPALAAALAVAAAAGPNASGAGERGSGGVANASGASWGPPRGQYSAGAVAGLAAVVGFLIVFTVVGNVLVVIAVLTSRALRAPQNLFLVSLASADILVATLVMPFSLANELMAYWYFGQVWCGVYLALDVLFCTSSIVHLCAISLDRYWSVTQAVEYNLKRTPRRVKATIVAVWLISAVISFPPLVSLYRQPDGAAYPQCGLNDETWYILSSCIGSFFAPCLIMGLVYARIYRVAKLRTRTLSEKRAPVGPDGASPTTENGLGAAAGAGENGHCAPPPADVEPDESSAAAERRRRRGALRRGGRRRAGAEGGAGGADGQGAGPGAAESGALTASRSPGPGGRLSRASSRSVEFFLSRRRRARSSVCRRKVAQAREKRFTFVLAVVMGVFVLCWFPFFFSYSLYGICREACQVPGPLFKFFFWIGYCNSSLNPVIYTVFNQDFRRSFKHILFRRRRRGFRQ

[3] = biological target: T1, human α2A‐adrenoceptor; assay: ERK1/2‐phosphorylation in CHO‐α2A cells; assay type: cell-based; set-up: expressed in transfected cells; host or cells: CHO-K1 with CRE-SPAP reporter
[4] = biological target: T2, human α2C‐adrenoceptor; assay: ERK1/2‐phosphorylation in CHO‐α2C cells; assay type: cell-based; set-up: expressed in transfected cells; host or cells: CHO-K1 with CRE-SPAP reporter; conditions: for EC50: read-out: Log EC50, ERK1/2‐phosphorylation (converted)
[5] = biological target: T1, human α2A‐adrenoceptor; assay: 3H‐rauwolscine whole cell binding in CHO‐α2A cells; set-up: expressed in transfected cells; host or cells: CHO-K1 with CRE-SPAP reporter
[6] = biological target: T2, human α2C‐adrenoceptor; assay: 3H‐rauwolscine whole cell binding in CHO‐α2C cells; set-up: expressed in transfected cells; host or cells: CHO-K1 with CRE-SPAP reporter
[7] = CHO‐α2A (cell line 1), absence of forskolin
[8] = CHO‐α2A (cell line 1, 5830 fmol/mg protein), 3 μM forskolin
[9] = CHO‐α2C cells, CRE‐SPAP production in the absence of forskolin
[10] = CHO‐α2C cells, given as negative log EC50, mean ± SEM
[11] = CHO‐α2C cells, % inhibition from the 3 μM forskolin control, mean ± SEM
[12] = CHO‐α2C cells, inhibition of 3 μM forskolin‐stimulated CRE‐SPAP production, given as negative log IC50, mean ± SEM
[13] = CHO‐α2C cells, 3H‐rauwolscine whole cell binding, given as negative log KD, mean only (SEM in Table 4)
[14] = CHO‐α2C cells, maximum response compared to 10 μM PDBu, mean ± SEM

With `CCC1(c2cnc[nH]2)Cc2ccccc2C1` [Atipamezole] the “Log EC50 (Gs), CRE‐SPAP (without forskolin)” value (“Log EC50 … (without forskolin)” below) [1, 7] was “No response”, the “Log IC50 (Gi), CRE‐SPAP (with forskolin)” value [1, 8] was “No response” and the “% inhibition, CRE‐SPAP (with forskolin)” value [2] was 15.8 ± 7.5%. The IC50 [2] was 0.2 µM, the “Log efficacy ratio (KD/IC50)” value [2] was −1.78 and the “Log EC50 … (without forskolin)” value [2, 9] was “No response”. For the same compound, the “% 10 μM PDBu, ERK1/2‐phosphorylation” value [3] was 42.4 ± 5.9%, the EC50 ([3]; CHO‐α2A, read-out: Log EC50, ERK1/2‐phosphorylation (converted)) was 0.0288 µM and the “% 10 μM PDBu, ERK1/2‐phosphorylation” value [4] was 63.7 ± 8.3%. For the same compound, the EC50 [4, 10] was 0.00832 µM.

With `CC(C)NCC(O)c1ccc(O)c(O)c1` (stereo not shown) [Isoprenaline] the “% inhibition, CRE‐SPAP (with forskolin)” value [2] was 95.0 ± 5.2% and the “% 10 μM PDBu, ERK1/2‐phosphorylation” value [4] was 130.7 ± 11.1%.

For `OCc1cc(C(O)CNCCCCCCOCCCCc2ccccc2)ccc1O` (stereo not shown) [Salmeterol], the “Log EC50 … (without forskolin)” value [1, 7] was “No response”, the “Log IC50 (Gi), CRE‐SPAP (with forskolin)” value [1, 8] was “No response” and the “Log IC50 (Gi), CRE‐SPAP (with forskolin)” value [2] was “No response”. For the same compound, the “Log EC50 … (without forskolin)” value [2, 9] was “No response”, the Kd ([5]; read-out: Log KD (binding) (converted)) was 17.4 µM and the Kd ([6]; CHO‐α2C cells, 3H‐rauwolscine whole cell binding, given as negative log KD, mean only (SEM in Table 4), read-out: Log KD (converted)) was 5.25 µM.

With `Cc1sc(C)c2c1CCC=C2c1cnc[nH]1.O=C(O)/C=C\C(=O)O` [T‐CG 1000] the “Log efficacy ratio (KD/IC50)” value [2] was −0.63, the “% inhibition, CRE‐SPAP (with forskolin)” value [2, 11] was 50.2 ± 5.1% and the “Log EC50 … (without forskolin)” value [2, 9] was “No response”. The “Log IC50 (Gi), CRE‐SPAP (with forskolin)” value [2, 12] was −6.12 ± 0.05, the “Log KD” value [6, 13] was −6.75 and the “% 10 μM PDBu, ERK1/2‐phosphorylation” value [4, 14] was 87.5 ± 14.2%. The “Log EC50, ERK1/2‐phosphorylation” value [4, 10] was −7.05 ± 0.14.

With `COc1ccc(CC(C)NCC(O)c2ccc(O)c(NC=O)c2)cc1` (stereo not shown) [Formoterol] the “Log EC50 … (without forskolin)” value [1] was “No response”, the “Log IC50 (Gi), CRE‐SPAP (with forskolin)” value [1] was “No response” and the “Log EC50 … (without forskolin)” value [2] was “No response”. For the same compound, the “Log IC50 (Gi), CRE‐SPAP (with forskolin)” value [2] was “No response”, the IC50 [5] was greater than 100 µM and the IC50 ([5]; read-out: IC50 in binding, CHO‐α2A) was greater than 100 µM. For the same compound, the IC50 [6] was greater than 100 µM and the IC50 ([6]; read-out: IC50 in binding, CHO‐α2C) was greater than 100 µM.

With `C1=C(c2cnc[nH]2)c2ccsc2CC1` [RWJ52353] the “Log efficacy ratio (KD/IC50)” value [2] was 1.80, the “% inhibition, CRE‐SPAP (with forskolin)” value [2, 11] was 76.5 ± 5.6% and the “Log EC50 … (without forskolin)” value [2, 9] was “No response”. The “Log IC50 (Gi), CRE‐SPAP (with forskolin)” value [2, 12] was −6.47 ± 0.10, the “Log KD (apparent), CHO‐α2C” value ([6]; 3H‐rauwolscine whole cell binding, ^app: apparent KD, IC50 from extrapolated curve as not all specific binding was inhibited) was −4.67 ± 0.08^app and the “Log KD” value [6, 13] was −4.67. For the same compound, the “% 10 μM PDBu, ERK1/2‐phosphorylation” value [4, 14] was 143.5 ± 14.0% and the “Log EC50, ERK1/2‐phosphorylation” value [4, 10] was −7.74 ± 0.09.

For `CC(Cc1ccc(O)cc1)NCC(O)c1cc(O)cc(O)c1` (stereo not shown) [Fenoterol], the “Log EC50 … (without forskolin)” value [1] was “No response”, the “Log IC50 (Gi), CRE‐SPAP (with forskolin)” value [1] was “No response” and the “Log EC50 … (without forskolin)” value [2] was “No response”. For the same compound, the “Log IC50 (Gi), CRE‐SPAP (with forskolin)” value [2] was “No response”, the Kd ([5]; Log KD (apparent), CHO‐α2A) was 347 ± 5.01 µM and the Kd ([5]; Log KD (binding)) was 347 µM. The Kd ([6]; Log KD) was 151 µM and the Kd ([6]; Log KD (apparent), CHO‐α2C) was 151 µM.

For `Cc1cccc(C(C)c2cnc[nH]2)c1C` (stereo not shown) [Medetomidine], the “% 3 μM forskolin, CRE‐SPAP (without forskolin)” value [1] was 23.1 ± 4.7%, the “% inhibition, CRE‐SPAP (with forskolin)” value [2] was 86.4 ± 2.1% and the “Log EC50 … (without forskolin)” value [2] was “No response”. For the same compound, the IC50 ([2]; Log IC50 (Gi), CRE‐SPAP (with forskolin)) was 0.000513 µM, the Kd ([6]; read-out: Log KD (converted)) was 0.0324 µM and the Kd ([6]; read-out: Log KD, CHO‐α2C (converted)) was 0.0324 µM. For the same compound, the “% 10 μM PDBu, ERK1/2‐phosphorylation” value [3] was 114.1 ± 9.3%, the “% 10 μM PDBu, ERK1/2‐phosphorylation” value [4] was 159.3 ± 16.4% and the EC50 [4] was 0.000195 µM.
